Assay results reported in patent US20080009479A1, “Tetrahydrobenzazepines as Histamine H3 Receptor Ligands” (GLAXO GROUP LIMITED, priority 2004, published 2008).

Key:
[1] = molecular target: T1, human histamine H3 receptor (Homo sapiens, UniProt Q9Y5N1); assay: Histamine H3 functional antagonist assay (method B); format: biochemical; conditions: [35S]GTPγS LeadSeeker SPA, CHO membranes, histamine at EC80, 384 well; read-out: antagonism pKb, histamine H3 functional antagonist assay (method B) (converted)
T1 construct: expressed in transfected cells; host or cells: CHO K1 cells carrying the pSwitch regulatory plasmid, transfected with pGeneH3 and induced with mifepristone; clone 3H3; membranes prepared from these cells
Description: (§1) A membrane preparation containing histamine H3 receptors may be prepared in accordance with the following procedures:
DNA encoding the human histamine H3 gene (Huvar, A. et al. (1999) Mol. Pharmacol. 55(6), 1101-1107) was cloned into a holding vector, pCDNA3.1 TOPO (InVitrogen) and its cDNA was isolated from this vector by restriction digestion of plasmid DNA with the enzymes BamH1 and Not-1 and ligated into the inducible expression vector pGene (InVitrogen) digested with the same enzymes. The GeneSwitch™ system (a system where in transgene expression is switched off in the absence of an inducer and switched on in the presence of an inducer) was performed as described in U.S. Pat. Nos. 5,364,791; 5,874,534; and 5,935,934. Ligated DNA was transformed into competent DH5α E. coli host bacterial cells and plated onto Luria Broth (LB) agar containing Zeocin™ (an antibiotic which allows the selection of cells expressing the sh ble gene which is present on pGene and pSwitch) at 50 μg ml^−1. Colonies containing the re-ligated plasmid were identified by restriction analysis. DNA for transfection into mammalian cells was prepared from 250 ml cultures of the host bacterium containing the pGeneH3 plasmid and isolated using a DNA preparation kit (Qiagen Midi-Prep) as per manufacturers guidelines (Qiagen). […]
(§2) 10-14 days post selection 10 nM Mifepristone (InVitrogen), was added to the culture medium to induce the expression of the receptor. […] Receptor bound antibody was detected by incubation of the cells for 60 minutes on ice with a goat anti rabbit antibody, conjugated with Alexa 488 fluorescence marker (Molecular Probes). Following two further washes with Sorting Medium, cells were filtered through a 50 μm Filcon™ (BD Biosciences) and then analysed on a FACS Vantage SE Flow Cytometer fitted with an Automatic Cell Deposition Unit. […]

[2] = molecular target: T1, human histamine H3 receptor; assay: Histamine H3 functional antagonist assay (method C); format: biochemical; conditions: [35S]GTPγS LeadSeeker SPA, CHO membranes, histamine at EC80, 384 well, compound in DMSO; read-out: antagonism pKb, histamine H3 functional antagonist assay (method C) (converted)
Description: as §1
(§3) DNA encoding the human histamine H3 gene (Huvar, A. et al. (1999) Mol. Pharmacol. 55(6), 1101-1107) was cloned into a holding vector, pCDNA3.1 TOPO (InVitrogen) and its cDNA was isolated from this vector by restriction digestion of plasmid DNA with the enzymes BamH1 and Not-1 and ligated into the inducible expression vector pGene (InVitrogen) digested with the same enzymes. The GeneSwitch™ system (a system where in transgene expression is switched off in the absence of an inducer and switched on in the presence of an inducer) was performed as described in U.S. Pat. Nos. 5,364,791; 5,874,534; and 5,935,934. […]
as §2

human H1 receptor = molecular target: T2, human H1 receptor (Homo sapiens, UniProt P35367); assay: Histamine H1 functional antagonist assay (method A); format: cell-based; conditions: FLIPR, FLUO4AM, suppression of histamine induced increase in fluorescence; read-out: antagonism pKb, histamine H1 functional antagonist assay (method A) (converted)
T2 construct: expressed in transfected cells; host or cells: Chinese hamster ovary cells stably expressing the human H1 receptor
Experimental: A histamine H1 cell line may be generated in accordance with the following procedure:
The human H1 receptor was cloned using known procedures described in the literature [Biochem. Biophys. Res. Commun. 1994, 201(2), 894]. Chinese hamster ovary cells stably expressing the human H1 receptor were generated according to known procedures described in the literature [Br. J. Pharmacol. 1996, 117(6), 1071].
(IV) Histamine H1 Functional Antagonist Assay (Method A)
The compound is assayed in a black walled clear bottom 384-well plate with cells seeded at 10000 cells/well. Tyrodes buffer is used throughout (NaCl 145 mM, KCl 2.5 mM, HEPES 10 mM, glucose 10 mM, MgCl2 1.2 mM, CaCl2 1.5 mM, probenecid 2.5 mM, pH adjusted to 7.40 with NaOH 1.0 M). Each well is treated with 10 μl of a solution of FLUO4AM (10 μM in Tyrodes buffer at pH 7.40) and plates are then incubated for 60 minutes at 37° C. Wells are then washed with Tyrodes buffer using a EMBLA cell washer system, leaving 40 μl buffer in each well, and then treated with 10 μl of test compound in Tyrodes buffer. […]
Functional antagonism is indicated by a suppression of histamine induced increase in fluorescence, as measured by the FLIPR system (Molecular Devices). By means of concentration effect curves, functional potencies are determined using standard pharmacological mathematical analysis.

[3] = molecular target: T1, human histamine H3 receptor; assay: Histamine H3 functional antagonist assay (method A); format: biochemical; conditions: [35S]GTPγS SPA, CHO membranes, histamine 0.3 μM, 96 well
Description: as §1, §3, §2

T1 sequence (Q9Y5N1 whole entry): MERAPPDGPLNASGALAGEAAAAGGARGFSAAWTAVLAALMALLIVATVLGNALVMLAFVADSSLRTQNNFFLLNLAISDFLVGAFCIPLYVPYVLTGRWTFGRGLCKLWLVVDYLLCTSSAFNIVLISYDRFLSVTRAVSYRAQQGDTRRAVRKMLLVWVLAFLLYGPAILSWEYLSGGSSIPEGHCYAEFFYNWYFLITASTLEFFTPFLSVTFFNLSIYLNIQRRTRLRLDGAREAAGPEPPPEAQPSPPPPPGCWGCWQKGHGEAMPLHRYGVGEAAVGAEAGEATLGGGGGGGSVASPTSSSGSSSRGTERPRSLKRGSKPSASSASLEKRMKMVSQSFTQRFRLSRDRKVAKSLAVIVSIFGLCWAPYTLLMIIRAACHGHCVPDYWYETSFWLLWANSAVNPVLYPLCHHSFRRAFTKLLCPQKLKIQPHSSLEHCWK
T2 sequence (P35367 whole entry): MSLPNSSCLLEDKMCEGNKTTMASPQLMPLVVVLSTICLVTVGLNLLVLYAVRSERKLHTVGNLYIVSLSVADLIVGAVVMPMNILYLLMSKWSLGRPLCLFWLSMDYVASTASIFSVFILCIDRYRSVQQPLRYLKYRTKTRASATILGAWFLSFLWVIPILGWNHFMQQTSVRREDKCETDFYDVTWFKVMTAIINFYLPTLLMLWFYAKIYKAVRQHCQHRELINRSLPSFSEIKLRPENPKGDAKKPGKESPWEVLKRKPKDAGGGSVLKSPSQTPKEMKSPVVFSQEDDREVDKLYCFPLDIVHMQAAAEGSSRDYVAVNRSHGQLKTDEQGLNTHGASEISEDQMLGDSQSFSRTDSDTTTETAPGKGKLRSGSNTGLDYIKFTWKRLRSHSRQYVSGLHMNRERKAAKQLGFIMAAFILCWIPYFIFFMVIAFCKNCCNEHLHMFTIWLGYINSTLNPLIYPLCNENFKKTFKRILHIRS

SMILES | Kb [1] | Kb [2] | further results
O=C1CCCN1c1cnc(Oc2ccc3c(c2)CCN(CC2CC2)CC3)cn1 [Example E1, 1-(5-{[3-(Cyclopropylmethyl)-2,3,4,5-tetrahydro-1H-3-benzazepin-7-yl]oxy}-2-pyrazinyl)-2-pyrrolidinone] | < 1 nM | < 1 nM | –
O=C1CCCN1c1ccc(Oc2ccc3c(c2)CCN(CC2CC2)CC3)nc1 [Example E13, 1-(6-{[3-(Cyclopropylmethyl)-2,3,4,5-tetrahydro-1H-3-benzazepin-7-yl]oxy}-3-pyridinyl)-2-pyrrolidinone] | < 1 nM | – | –
CCN1CCc2ccc(Oc3ccc(N4CCCC4=O)cn3)cc2CC1 [Example E14, 1-{6-[(3-Ethyl-2,3,4,5-tetrahydro-1H-3-benzazepin-7-yl)oxy]-3-pyridinyl}-2-pyrrolidinone] | < 1 nM | – | –
CCC(C)N1CCc2ccc(Oc3ccc(N4CCCC4=O)cn3)cc2CC1 (centres unmarked) [Example E15, 1-(6-{[3-(1-Methylpropyl)-2,3,4,5-tetrahydro-1H-3-benzazepin-7-yl]oxy}-3-pyridinyl)-2-pyrrolidinone] | – | < 1 nM | –
c1ccc(COc2ccc3c(c2)CCN(CC2CC2)CC3)cc1 [Example E19, 3-(Cyclopropylmethyl)-7-[(phenylmethyl)oxy]-2,3,4,5-tetrahydro-1H-3-benzazepine] | – | – | Kb (human H1 receptor): > 316 nM; Kb ([3]; antagonism pKb, histamine H3 functional antagonist assay (method A)): < 10 nM
c1cc2c(cc1OCCCC1CCCCC1)CCN(CC1CC1)CC2 [Example E20, 7-[(3-Cyclohexylpropyl)oxy]-3-(cyclopropylmethyl)-2,3,4,5-tetrahydro-1H-3-benzazepine] | – | – | Kb ([3]; read-out: antagonism pKb, histamine H3 functional antagonist assay (method A) (converted)): < 100 nM
